# Assay results reported in patent publication US11541132B2, “Radiolabeled compounds” (Hoffmann-La Roche Inc., priority 2017, dated 2023).
# Key:
# [1] = molecular target: T1, native aSyn aggregates in A30P transgenic mouse brain sections (Homo sapiens, UniProt P37840, A30P); experiment: aSyn in vitro displacement assay ([3H]Example-3 autoradiography); format: binding, mutant human aSyn gene); conditions: 3 nM [3H]Example-3, A30P transgenic mouse brain sections; for inhibition at 1 µM: 1 μM compound, read-out: PCT_INHIB A30P @ 1 μM (% displacement of [3H]Example-3)
# T1 construct: from tissue; host or cells: brain sections (midbrain and pons as ROI) of A30P transgenic mice, line B6.D2-Tg(Thy1-SNCA*30P)31Pjk
# [2] = molecular target: T2, native Aβ aggregates in human AD brain tissue sections (Homo sapiens, UniProt P05067); experiment: Aβ in vitro displacement assay (selectivity counterscreen, [3H]Example 3 autoradiography); format: binding; conditions: 3 nM [3H]Example 3, human AD brain sections; for inhibition at 1 µM: 1 μM compound, read-out: sel. counterscreen PCT_INHIB AD @ 1 μM (% displacement of [3H]Example 3)
# T2 construct: native Aβ aggregates in human AD brain tissue samples; from tissue; host or cells: human AD brain tissue sections
# T2 sequence (P05067 672-713 limits assumed): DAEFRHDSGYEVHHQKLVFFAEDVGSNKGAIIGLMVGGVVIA
SMILES,inhibition at 1 µM [1] [%],inhibition at 1 µM [2] [%],"inhibition at 3 µM ([1]; 3 μM compound, read-out: PCT_INHIB A30P @ 3 μM) [%]","inhibition at 3 µM ([2]; 3 μM compound, read-out: sel. counterscreen PCT_INHIB AD @ 3 μM) [%]"
"COc1ccc(C(=O)Nc2ccc(N3CCN(c4ccc(C#N)cn4)CC3)cc2)cc1F [Example 160, N-(4-(4-(5-Cyanopyridin-2-yl)piperazin-1-yl)phenyl)-3-fluoro-4-methoxybenzamide]",96,95,–,–
"CN1CCOc2cc(C(=O)Nc3ccc(N4CCN(c5ccccn5)CC4)cc3)ccc21 [Example 42, 4-Methyl-N-(4-(4-(pyridin-2-yl)piperazin-1-yl)phenyl)-3,4-dihydro-2H-benzo[b][1,4]oxazine-7-carboxamide]",91,94,–,–
"COc1ccc(C(=O)Nc2ccc(N3CCN(c4ccccn4)CC3)nc2)cc1 [Example 24, 4-Methoxy-N-[6-[4-(2-pyridyl)piperazin-1-yl]-3-pyridyl]benzamide]",94,–,–,–
"O=C(Nc1ccc(N2CCN(c3cccnc3)CC2)cc1)c1ccc(OCF)cc1 [Example 134, 4-(fluoromethoxy)-N-(4-(4-(pyridin-3-yl)piperazin-1-yl)phenyl)benzamide]",94,93,–,–
"COc1ccc(C(=O)Nc2ccc(N3CCN(c4ccccn4)CC3)cn2)c(F)c1 [Example 44, 2-Fluoro-4-methoxy-N-(5-(4-(pyridin-2-yl)piperazin-1-yl)pyridin-2-yl)benzamide]",95,94,–,–
"C#CCOCCOc1ccc(C(=O)Nc2ccc(N3CCN(c4ccc(C#N)cn4)CC3)cc2)cc1 [Example 175, N-[4-[4-(5-Cyano-2-pyridyl)piperazin-1-yl]phenyl]-4-(2-prop-2-ynoxyethoxy)benzamide]",–,–,85,98
"COc1ccc(C(=O)Nc2ccc(N3CCN(c4cc(C)c(C#N)cn4)CC3)cc2)cc1 [Example 151, N-(4-(4-(5-Cyano-4-methylpyridin-2-yl)piperazin-1-yl)phenyl)-4-methoxybenzamide]",93,91,–,–
"COc1ccc(C(=O)Nc2ccc(N3CCN(c4ccccn4)CC3)cc2)c(C)c1 [Example 11, 4-Methoxy-2-methyl-N-(4-(4-(pyridin-2-yl)piperazin-1-yl)phenyl)benzamide]",87,86,–,–
"O=C(Nc1ccc(N2CCN(c3nccs3)CC2)cc1)c1ccc(N2CCOCC2)cc1 [Example 26, 4-Morpholin-4-yl-N-[4-[4-(1,3-thiazol-2-yl)piperazin-1-yl]phenyl]benzamide]",93,–,–,–
"COc1ccc(C(=O)Nc2ccc(N3CCN(c4ccccn4)CC3)nc2)c(C)c1 [Example 19, 4-Methoxy-2-methyl-N-[6-[4-(2-pyridyl)piperazin-1-yl]-3-pyridyl]benzamide]",81,–,–,–
"CN1CCN(c2ccc(C(=O)Nc3ccc(N4CCN(c5ccccn5)CC4)nc3)cc2)CC1 [Example 22, 4-(4-Methylpiperazin-1-yl)-N-[6-[4-(2-pyridyl)piperazin-1-yl]-3-pyridyl]benzamide]",84,–,–,–
"Cc1ccc(C(=O)Nc2ccc(N3CCN(c4ccccn4)CC3)nc2)c(F)c1 [Example 23, 2-Fluoro-4-methyl-N-[6-[4-(2-pyridyl)piperazin-1-yl]-3-pyridyl]benzamide]",82,–,–,–
"CN1CCN(c2ccc(C(=O)Nc3ccc(N4CCN(c5nccs5)CC4)cc3)cc2)CC1 [Example 28, 4-(4-Methylpiperazin-1-yl)-N-[4-[4-(1,3-thiazol-2-yl)piperazin-1-yl]phenyl]benzamide]",82,–,–,–
"Cc1ccc(C(=O)Nc2ccc(N3CCN(c4nccs4)CC3)cc2)nc1 [Example 25, 5-Methyl-N-[4-[4-(1,3-thiazol-2-yl)piperazin-1-yl]phenyl]pyridine-2-carboxamide]",83,–,–,–
"Cc1ccc(C(=O)Nc2ccc(N3CCN(c4nccs4)CC3)cc2)cc1 [Example 27, 4-Methyl-N-[4-[4-(1,3-thiazol-2-yl)piperazin-1-yl]phenyl]benzamide]",89,–,–,–
